# Assay results as given in patent US12139458B2, “(2,5-dioxopyrrolidin-1-yl)(phenyl)-acetamide derivatives and their use in the treatment of neurological diseases” (UNIWERSYTET JAGIELLONSKI, priority 2019, dated 2024).
# How the values were obtained:
# [1] = molecular target: T1, CYP2D6 (Homo sapiens, UniProt P10635); assay: CYP2D6 P450-Glo luminescence test; type: in vitro ADME; conditions: 10 μM
# T1 construct: purchased Promega (Madison, WI, USA)
# Method: Effect of compound 6 on cytochrome P-450 3A4 and 2D6 activity. The research was conducted using commercial luminescence tests CYP3A4 P450-Glo™ and CYP2D6 P450-Glo™ from Promega (Madison, WI, USA) based on the methodology described in the literature (Socała, K.; Mogilski, S.; Pieróg, M.; Nieoczym, D.; Abram, M.; Szulczyk, B.; Lubelska, A.; Latacz, G.; Doboszewska, U.; Wlaź, P.; Kamiński, K. ACS Chem. Neurosci. 2018, doi: 10.1021/acschemneuro.8b00476; Latacz, G.; Lubelska, A.; Jastrzȩbska-Wiȩek, M.; Partyka, A.; Sobato, A.; Olejarz, A.; Kucwaj-Brysz, K.; Satata, G.; Bojarski, A. J.; Wesołowska, A.; Kieć-Kononowicz, K.; Handzlik, J. Chem. Biol. Drug. Des. 2017, 90, 1295-1306). The CYP isoforms selected for study are responsible for the metabolism of approximately 40-50% of the drugs available on the market, and their stimulation or inhibition determines the majority of metabolic drug interactions. […] In summary, the results obtained indicate a low probability of potential metabolic interactions caused by 6.
# [2] = system: HepG2 cells; assay: In vitro hepatotoxicity, MTS cell viability assay; type: cell-based; conditions: 100 μM, 72 h incubation, p<0.05
# Method: (§1) In vitro hepatotoxicity assessment. The studies were conducted using the hepatoma HepG2 liver cancer cell line, which is used to assess the hepatotoxicity of the substance in vitro. A classic MTS colorimetric assay from Promega (Madison, WI, USA) was used to investigate the effect of 6 on HepG2 cell viability and proliferation. The compound was tested at four concentrations in the range (0.1-100 μM). Doxorubicin at a concentration of 1 μM was used as a reference cytostatic. In addition, the reference mitochondrial toxin carbonyl cyanide m-chlorophenylhydrazone (CCCP) at a concentration of 10 μM was also used (FIG. 10). […] In addition, cell viability was reduced to just 84% of the control, indicating a trace toxic effect of this compound on HepG2 cell lines. Due to the particular exposure of liver cells to the potential toxic effects of xenobiotics, an additional test was carried out with the HepG2 line in the form of luminescent measurement of ATP levels in cells, after a short 3-hour exposure to compound 6, in concentrations in the range of 1-100 μM. […]
# In vitro hepatotoxicity assessment—methodology. […] Plates were again incubated for 2-3 hours, followed by absorbance measurement at 490 nm with an EnSpire PerkinElmer (Waltham, MA, USA) reader. Statistical significance was calculated by one-way ANOVA variance analysis and the Bonferroni method. […]
# [3] = system: HepG2 cells; assay: ATP level, CellTiter-Glo Luminescent Cell Viability Assay; type: cell-based; conditions: 1-100 μM, 3 h exposure
# Method: as §1, with “lines.” for “lines. Due to the particular exposure of liver cells to the potential toxic effects of xenobiotics, an additional test was carried out with the HepG2 line in the form of luminescent measurement of ATP levels in cells, after a short 3-hour exposure to compound 6, in concentrations in the range of 1-100 μM.”
# CellTiter-Glo Luminescent Cell Viability Assay from Promega (Madison, WI, USA) was used to study ATP levels in HepG2 cells. Prior to testing, the cells were plated into white, 96-well transparent bottom culture plates from Corning (Tewksbury, MA, USA), adapted for luminescence measurement at a concentration of 1.5×10^4 cells per well. […] Luminescence measurement was carried out with an EnSpire PerkinElmer (Waltham, MA, USA) reader after adding CellTiter-Glo Luminescent Cell Viability Assay in an amount of 100 μl to the culture. Statistical significance was calculated by one-way ANOVA and Bonferroni analysis using GraphPad Prism 5. […]
# [4] = Rotarod test (motor coordination); type: in vivo; conditions: male, Swiss albino (CD-1), mouse, in vivo, ip, mice
# How it was run: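 Compounds were given i.p. in 1% aqueous Tween as single doses 30 min before testing, 4 mice per group, after training the day before. Mice were tested on a 2 cm rod at 10 rpm for 60 s, and failure to stay on for 1 min counted as impairment. Statistics: one-way ANOVA with Dunnett's test, p<0.05.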
# T1 sequence (P10635 whole entry): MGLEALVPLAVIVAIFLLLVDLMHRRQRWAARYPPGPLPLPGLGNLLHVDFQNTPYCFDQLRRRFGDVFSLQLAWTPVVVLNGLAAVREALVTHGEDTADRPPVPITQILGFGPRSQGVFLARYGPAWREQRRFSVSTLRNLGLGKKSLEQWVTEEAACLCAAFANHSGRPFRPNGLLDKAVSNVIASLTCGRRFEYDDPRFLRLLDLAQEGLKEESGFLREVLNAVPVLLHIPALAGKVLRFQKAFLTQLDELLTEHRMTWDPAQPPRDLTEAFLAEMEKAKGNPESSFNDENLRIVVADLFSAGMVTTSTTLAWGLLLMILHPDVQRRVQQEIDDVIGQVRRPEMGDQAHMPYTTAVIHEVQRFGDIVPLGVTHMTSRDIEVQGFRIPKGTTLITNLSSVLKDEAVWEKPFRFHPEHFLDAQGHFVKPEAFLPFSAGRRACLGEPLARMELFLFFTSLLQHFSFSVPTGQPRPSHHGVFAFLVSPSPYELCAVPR
smiles,measurement,setting,value
"O=C(C(c1ccccc1)N1C(=O)CCC1=O)N1CCN(c2cccc(C(F)(F)F)c2)CC1 (racemic) [Compound 6, 1-(2-Oxo-1-phenyl-2-(4-(3-(trifluoromethyl)phenyl)piperazin-1-yl)ethyl)pyrrolidine-2,5-dione]",effect on CYP2D6 activity,[1],very weak stimulating effect
same,"HepG2 cell viability, % of the control",[2],84%
same,effect on ATP levels in HepG2 cells,[3],no statistically significant effect
same,TD50 at 0.5 h,[4],196 mg/kg
